Measured values reported in patent US12729377B2, “RNAi agents and compositions for inhibiting expression of angiopoietin-like 3 (ANGPTL3), and methods of use” (Arrowhead Pharmaceuticals, Inc., priority 2017, dated 2026).
In the oligonucleotide strings, read from the 5' end, every base follows the letter of its sugar. An asterisk marks phosphorothioate; unmarked linkages are phosphodiester. Other units and linkages are bracketed, terminal groups are in braces. A string of capitals states the bases alone. {NAG37} = tridentate N-acetyl-galactosamine targeting ligand, structure (NAG37)s; [invAb] = inverted abasic unit; m = 2'-O-methyl; f = 2'-fluoro

Assays:
ANGPTL3 protein [1] = assay: Example 2: serum ANGPTL3 protein by ELISA in mice; assay type: in vivo, C57bl/6 mice; details: for Avg ANGPTL3 (Average ANGPTL3 Protein Normalized to Pre-Treatment and Control): 3.0 mg/kg single subcutaneous dose on day 1, serum, female C57bl/6 mice
Method: (§1) To assess the in vivo activity of ANGPTL3 RNAi agents that are designed to target different positions on the ANGPTL3 gene, six- to eight-week-old female C57bl/6 mice were used. Pre-dose serum samples were taken at day −1 after a four hour fast. At day 1, each mouse was given a single subcutaneous administration of 200 μl containing either 3 mg/kg (mpk) of an ANGPTL3 RNAi agent in D5W (dextrose in 5% water), or control (D5W) with no RNAi agent, according to the dosing groups recited in Table 7.
(§2) Each of the RNAi agents included a modified sequence and an N-acetyl-galactosamine-containing targeting ligand conjugated to the 5′ terminal end of the sense strand. (See Tables 3, 4, and 5 for modified sequences and targeting ligand structures). The injections were performed between the skin and muscle (i.e. subcutaneous injections) into the loose skin over the neck and shoulder area. Three (3) mice in each group were tested (n=3). Serum was collected on days 8, 13, 22, 29, and day 36 (for Groups 1 and 5-11 only). Mice were fasted for four hours prior to each collection. ANGPTL3 protein levels in serum were measured by ELISA assay (R&D Systems), according to the manufacturer's recommendations. Triglycerides, high-density lipoprotein (HDL), and total cholesterol in serum were measured on a Cobas® Integra 400 (Roche Diagnostics), according to the manufacturer's recommendations.
(§3) The ANGPTL3 protein levels, triglyceride levels, HDL levels, and total cholesterol levels for each animal were normalized. For normalization, the level of ANGPTL3 protein, triglyceride, HDL, and total cholesterol, respectively, for each animal at a time point, was divided by the pre-treatment level of expression in that animal (in this case at day −1) to determine the ratio of expression “normalized to pre-treatment.” Expression at a specific time point was then normalized to the D5W control group by dividing the “normalized to pre-treatment” ratio for an individual animal by the mean “normalized to pretreatment” ratio of all mice in the D5W control group.

ANGPTL3 gene [2] = assay: Example 2: serum triglycerides in mice; assay type: in vivo
Method: as §1, §2, §3

ANGPTL3 gene [3] = assay: Example 3: serum total cholesterol in mice; assay type: in vivo
Method: To assess the in vivo activity of ANGPTL3 RNAi agents that are designed to target positions 921 and 922 on the ANGPTL3 gene, six- to eight-week-old female C57bl/6 mice were used. Pre-dose serum samples were taken at day −1 after a four hour fast. At day 1, each mouse was given a single subcutaneous administration of 200 μl containing either 1 mg/kg (mpk) of an ANGPTL3 RNAi agent in D5W (dextrose in 5% water), or control (D5W) with no RNAi agent, according to the dosing groups recited in Table 12.
as §2, with “Serum was collected on days 8, 13, 22, 29, and day 36 (for Groups 1 and 5-11 only).” left out
as §3

ANGPTL3 protein [4] = assay: Example 8: serum ANGPTL3 protein by ELISA in cynomolgus monkeys; assay type: in vivo, cynomolgus macaque (Macaca fascicularis); details: for Avg ANGPTL3 protein normalized to pre-treatment: 3.0 mg/kg single SC injection day 1, cynos, n=2
Method: (§4) Additional ANGPTL3 RNAi agents were evaluated in cynomolgus monkeys. On day 1, cynomolgus macaque (Macaca fascicularis) primates (also referred to herein as “cynos”) were administered a single subcutaneous injection of 0.3 mL/kg (approximately 1-2 mL volume, depending on animal mass) containing 3.0 mg/kg of one of ANGPTL3 RNAi agent AD05577, AD05307, AD05488, AD05654, or AD05659, each formulated in saline.
(§5) Two (2) cynos in each group were tested (n=2). Blood samples were drawn and serum samples were analyzed on days −8 (pre-dose), 1 (pre-dose), 8, 15, 22, 29, and 36. Cynos were fasted overnight prior to each collection. ANGPTL3 protein levels in serum were measured by ELISA assay (R&D Systems), according to the manufacturer's recommendations. Triglycerides, total cholesterol, high-density lipoprotein (HDL), and low-density lipoprotein (LDL) in serum were measured on a Cobas® Integra 400 (Roche Diagnostics), according to the manufacturer's recommendations.
(§6) The ANGPTL3 protein levels, triglyceride levels, total cholesterol levels, HDL levels, and LDL levels for each animal were normalized. For normalization, the level of ANGPTL3 protein, triglyceride, HDL, and total cholesterol, respectively, for each animal at a time point, was divided by the average pre-treatment level of expression in that animal (in this case at days −8, and 1 (pre-dose)) to determine the ratio of expression “normalized to pre-treatment.”

ANGPTL3 gene [5] = assay: Example 8: serum triglycerides in cynomolgus monkeys; assay type: in vivo, cynomolgus macaque (Macaca fascicularis); details: 3.0 mg/kg single SC injection day 1, cynos, n=2
Method: as §4, §5, §6

ANGPTL3 gene [6] = assay: Example 8: serum total cholesterol in cynomolgus monkeys; assay type: in vivo, cynomolgus macaque (Macaca fascicularis); details: 3.0 mg/kg single SC injection day 1, cynos, n=2
Method: as §4, §5, §6

ANGPTL3 gene [7] = assay: Example 8: serum HDL in cynomolgus monkeys; assay type: in vivo, cynomolgus macaque (Macaca fascicularis); details: 3.0 mg/kg single SC injection day 1, cynos, n=2
Method: as §4, §5, §6

**Q.** Which “Avg ANGPTL3 (Average ANGPTL3 Protein Normalized to Pre-Treatment and Control)” value (ANGPTL3 protein [1]; Day 8) does the source give for “AD05307: RNAi agent duplex: antisense AM07001-AS, sense AM07000-SS (chain 1 mU*fU*mU*fGmAfAmUfUmAfAmUfGmUfCmCfAmUfGmGmG*mC; chain 2 {NAG37}*[invAb]*mGmCmCmCmAmUmGmGfAfCfAmUmUmAmAmUmUmCmAmAmA*[invAb])” here?
**A.** 0.117

**Q.** What about the “Avg ANGPTL3 (Average ANGPTL3 Protein Normalized to Pre-Treatment and Control)” value (ANGPTL3 protein [1]; Day 13) of the same substance?
**A.** 0.120

**Q.** And the “Avg ANGPTL3 (Average ANGPTL3 Protein Normalized to Pre-Treatment and Control)” value (ANGPTL3 protein [1]; Day 22)?
**A.** 0.134

**Q.** And the “Avg ANGPTL3 (Average ANGPTL3 Protein Normalized to Pre-Treatment and Control)” value (ANGPTL3 protein [1]; Day 29)?
**A.** 0.206

**Q.** And the “Avg ANGPTL3 (Average ANGPTL3 Protein Normalized to Pre-Treatment and Control)” value (ANGPTL3 protein [1]; Day 36)?
**A.** 0.216

**Q.** What about the “ANGPTL3 protein normalized to pre-treatment and control” value (ANGPTL3 protein [1]; day 29, single 3 mg/kg subcutaneous, C57bl/6 mice) of the same substance?
**A.** 0.206

**Q.** And the “Avg TG (Average Triglycerides Normalized to Pre-Treatment and Control)” value (ANGPTL3 gene [2]; Day 8, 3.0 mg/kg single subcutaneous dose on day 1, female C57bl/6 mice)?
**A.** 0.504

**Q.** And the “Avg TG (Average Triglycerides Normalized to Pre-Treatment and Control)” value (ANGPTL3 gene [2]; Day 13, 3.0 mg/kg single subcutaneous dose on day 1, female C57bl/6 mice)?
**A.** 0.655

**Q.** And the “Avg TG (Average Triglycerides Normalized to Pre-Treatment and Control)” value (ANGPTL3 gene [2]; Day 22, 3.0 mg/kg single subcutaneous dose on day 1, female C57bl/6 mice)?
**A.** 0.459

**Q.** What about the “Avg TG (Average Triglycerides Normalized to Pre-Treatment and Control)” value (ANGPTL3 gene [2]; Day 29, 3.0 mg/kg single subcutaneous dose on day 1, female C57bl/6 mice) of the same substance?
**A.** 0.629

**Q.** And the “Avg TG (Average Triglycerides Normalized to Pre-Treatment and Control)” value (ANGPTL3 gene [2]; Day 36, 3.0 mg/kg single subcutaneous dose on day 1, female C57bl/6 mice)?
**A.** 0.602

**Q.** And the “Avg Total Chol (Average Total Cholestrol Normalized to Pre-Treatment and Control)” value (ANGPTL3 gene [3]; Day 8, 1.0 mg/kg single subcutaneous dose on day 1, female C57bl/6 mice)?
**A.** 0.940

**Q.** What about the “Avg Total Chol (Average Total Cholestrol Normalized to Pre-Treatment and Control)” value (ANGPTL3 gene [3]; Day 15, 1.0 mg/kg single subcutaneous dose on day 1, female C57bl/6 mice) of the same substance?
**A.** 0.840

**Q.** And the “Avg Total Chol (Average Total Cholestrol Normalized to Pre-Treatment and Control)” value (ANGPTL3 gene [3]; Day 22, 1.0 mg/kg single subcutaneous dose on day 1, female C57bl/6 mice)?
**A.** 0.948

**Q.** And the “Avg Total Chol (Average Total Cholestrol Normalized to Pre-Treatment and Control)” value (ANGPTL3 gene [3]; Day 29, 1.0 mg/kg single subcutaneous dose on day 1, female C57bl/6 mice)?
**A.** 1.088

**Q.** What about the “Avg ANGPTL3 protein normalized to pre-treatment” value (“Avg ANGPTL3 protein normalized” for short) (ANGPTL3 protein [4]; Day 8) of the same substance?
**A.** 0.486

**Q.** What about the “Avg ANGPTL3 protein normalized” value (ANGPTL3 protein [4]; Day 15) of the same substance?
**A.** 0.402

**Q.** And the “Avg ANGPTL3 protein normalized” value (ANGPTL3 protein [4]; Day 22)?
**A.** 0.726

**Q.** And the “Avg ANGPTL3 protein normalized” value (ANGPTL3 protein [4]; Day 29)?
**A.** 0.518

**Q.** What about the “Avg ANGPTL3 protein normalized” value (ANGPTL3 protein [4]; Day 36) of the same substance?
**A.** 0.392

**Q.** And the “reduction in ANGPTL3 protein compared to pre-treatment” value (ANGPTL3 protein [4]; all measured time points, single 3.0 mg/kg subcutaneous, cynomolgus monkeys)?
**A.** reduction

**Q.** What about the “Avg TG normalized to pre-treatment” value (ANGPTL3 gene [5]; Day 8) of the same substance?
**A.** 1.157

**Q.** And the “Avg TG normalized to pre-treatment” value (ANGPTL3 gene [5]; Day 15)?
**A.** 1.058

**Q.** What about the “Avg TG normalized to pre-treatment” value (ANGPTL3 gene [5]; Day 22) of the same substance?
**A.** 0.895

**Q.** And the “Avg TG normalized to pre-treatment” value (ANGPTL3 gene [5]; Day 29)?
**A.** 0.969

**Q.** What about the “Avg TG normalized to pre-treatment” value (ANGPTL3 gene [5]; Day 36) of the same substance?
**A.** 0.806

**Q.** And the “Avg Total Chol normalized to pre-treatment” value (“Avg Total Chol normalized” for short) (ANGPTL3 gene [6]; Day 8)?
**A.** 0.994

**Q.** And the “Avg Total Chol normalized” value (ANGPTL3 gene [6]; Day 15)?
**A.** 1.006

**Q.** And the “Avg Total Chol normalized” value (ANGPTL3 gene [6]; Day 22)?
**A.** 0.905

**Q.** What about the “Avg Total Chol normalized” value (ANGPTL3 gene [6]; Day 29) of the same substance?
**A.** 0.954

**Q.** And the “Avg Total Chol normalized” value (ANGPTL3 gene [6]; Day 36)?
**A.** 0.909

**Q.** What about the “Average HDL Normalized to Pre-Treatment” value (ANGPTL3 gene [7]; Day 8) of the same substance?
**A.** 1.007

**Q.** What about the “Average HDL Normalized to Pre-Treatment” value (ANGPTL3 gene [7]; Day 15) of the same substance?
**A.** 0.946

**Q.** What about the “Average HDL Normalized to Pre-Treatment” value (ANGPTL3 gene [7]; Day 22) of the same substance?
**A.** 0.879

**Q.** And the “Average HDL Normalized to Pre-Treatment” value (ANGPTL3 gene [7]; Day 29)?
**A.** 0.998

**Q.** And the “Average HDL Normalized to Pre-Treatment” value (ANGPTL3 gene [7]; Day 36)?
**A.** 0.863
